Where no end group is shown, it is not given here.
Experiments:
IN-TAR RNA interaction = target: T1, IN-TAR RNA interaction (Human immunodeficiency virus type 1 group M subtype B, UniProt P04585); test: Alpha interaction assay: effect of stapled peptides on IN-TAR RNA interaction; format: binding, HIV-1; conditions: in vitro
T1 construct: made in house; host or cells: bacteria (E. coli inferred from the pGEX vector)
Description: (§1) FIG. 8A-FIG. 8D show quantitative alpha interaction assay to determine the effect of stapled peptides on the interaction of IN and IN-CTD with INI1 and INI1183-304 or TAR RNA. […] Fixed concentrations of GST-IN, 6His-INI1, and TAR RNA were incubated with increasing concentration of stapled peptides and the interaction was detected as Alpha Score. The IC50 values were determined by fitting the data to a four-parameter dose-response curve using Graph Pad prism. All the graphs represent the average of three independent experiments (Mean+/−SEM).
(§2) AlphaScreen proximity assay to detect the protein-protein and protein-RNA interactions. AlphaScreen assay was carried out using PerkinElmer Alpha-Lisa-6His Acceptor beads (Catalogue #AL128C), Alpha-Screen-GST donor beads (Catalogue #6765300), GST-tagged and His-tagged proteins for protein-protein interactions; and Alpha-Screen Streptavidin donor beads (Catalogue #6760002 S), Alpha-Lisa-GST acceptor beads (Catalogue #AL110C), Biotin-labeled RNA and GST-tagged proteins for protein-RNA interactions. The reaction was carried out according to the manufacturer's protocol in a reaction buffer contacting (25 mM HEPES pH 7.4, 100 mM NaCl (or 500 mM NaCl), 1 mM DTT, 1 mM MgCl2 and BSA 1 mg ml/ml). The mixture of proteins or protein and RNA were incubated for 1 hr at room temperate with shaking in a multi micro-plate shaker and then 20 ag ml/ml accepter beads were added and incubated for additional 1 h with shaking. Finally, 20 ag ml^−1 of donor beads were added and further incubated for 1 hr. The Alpha score readings were measured using Alpha-compatible Envision 2105 multi-plate reader (Perkin-Elmer). All the experiments related to this method were carried out 3 to 5 times and data were analyzed by using Graph Pad Prism 9 version 9.0.0 (GraphPad Software, CA). The RNA sequences used in this assay are listed in the Table 6d and were obtained from Integrated DNA technology.
(§3) These peptides were tested for their ability to disrupt the interaction between IN-INI1 and IN-TAR RNA in vitro.

IN-INI1 interaction = target: T2, IN-INI1 interaction (Human immunodeficiency virus type 1 group M subtype B, UniProt P04585); test: Alpha interaction assay: effect of stapled peptides on IN-INI1 interaction; format: binding, HIV-1; conditions: in vitro
T2 construct: made in house; host or cells: bacteria (E. coli inferred from the pGEX vector)
Description: as §1, §2, §3

Row | Substance | IC50, inhibition of IN-TAR RNA interactions (IN-TAR RNA interaction) | IC50, inhibition of IN-INI1 interactions (IN-INI1 interaction) | inhibition of IN-TAR RNA interactions (IN-TAR RNA interaction) | inhibition of IN-INI1 interactions (IN-INI1 interaction)
1 | lys-Leu-Met-Thr-Pro-Glu-R8-Met-Phe-Glu-Ile-Leu-S5-Cys-Asp-Leu-Asn [SP39] | low nanomolar | low nanomolar | – | –
2 | lys-Leu-Met-Thr-Pro-Glu-Met-Phe-Ser-Glu-Ile-Leu-Cys-Asp-Leu-Asn (KLMTPEMFSEILCDLN; not fully specified; printed as lys-Leu-Met-Thr-Pro-Glu-Met-Phe-Ser-Glu-Ile-Leu-Cys-Asp-Leu-Asn) [SP80, Linear peptide (without stapling) derived from Alpha helix 1 of INI1 Rpt-1 domain] | – | – | did not inhibit | did not inhibit

From patent US20240317826A1, “COMPOSITIONS AND METHODS FOR TREATING AND/OR I[…] AGENT FOR TREATING HIV-1 INFECTIONS” (priority 2021, published 2024)
